# Measured values as given in publication PMC11117660, “Novel Angiotensin-Converting Enzyme-Inhibitory Peptides Obtained from Trichiurus lepturus: Preparation, Identification and Potential Antihypertensive Mechanism” (Biomolecules, 2024).
# Read-outs that look alike come from different tables or passages of the source. Where no end group is shown, it is not given here.
# What was measured:
# [1] = biological target: T1, Angiotensin I-converting enzyme (ACE) (Oryctolagus cuniculus, UniProt P12822); assay: ACE-inhibitory activity (FAPGG substrate, absorbance at 340 nm); type: biochemical, rabbit; settings: synthetic peptides, Figure 7; experiments in triplicate
# T1 construct: sourced from rabbit lungs; purchased Sigma-Aldrich (St. Louis, MO, USA); host or cells: rabbit lung tissue
# T1 sequence (P12822 34-1310): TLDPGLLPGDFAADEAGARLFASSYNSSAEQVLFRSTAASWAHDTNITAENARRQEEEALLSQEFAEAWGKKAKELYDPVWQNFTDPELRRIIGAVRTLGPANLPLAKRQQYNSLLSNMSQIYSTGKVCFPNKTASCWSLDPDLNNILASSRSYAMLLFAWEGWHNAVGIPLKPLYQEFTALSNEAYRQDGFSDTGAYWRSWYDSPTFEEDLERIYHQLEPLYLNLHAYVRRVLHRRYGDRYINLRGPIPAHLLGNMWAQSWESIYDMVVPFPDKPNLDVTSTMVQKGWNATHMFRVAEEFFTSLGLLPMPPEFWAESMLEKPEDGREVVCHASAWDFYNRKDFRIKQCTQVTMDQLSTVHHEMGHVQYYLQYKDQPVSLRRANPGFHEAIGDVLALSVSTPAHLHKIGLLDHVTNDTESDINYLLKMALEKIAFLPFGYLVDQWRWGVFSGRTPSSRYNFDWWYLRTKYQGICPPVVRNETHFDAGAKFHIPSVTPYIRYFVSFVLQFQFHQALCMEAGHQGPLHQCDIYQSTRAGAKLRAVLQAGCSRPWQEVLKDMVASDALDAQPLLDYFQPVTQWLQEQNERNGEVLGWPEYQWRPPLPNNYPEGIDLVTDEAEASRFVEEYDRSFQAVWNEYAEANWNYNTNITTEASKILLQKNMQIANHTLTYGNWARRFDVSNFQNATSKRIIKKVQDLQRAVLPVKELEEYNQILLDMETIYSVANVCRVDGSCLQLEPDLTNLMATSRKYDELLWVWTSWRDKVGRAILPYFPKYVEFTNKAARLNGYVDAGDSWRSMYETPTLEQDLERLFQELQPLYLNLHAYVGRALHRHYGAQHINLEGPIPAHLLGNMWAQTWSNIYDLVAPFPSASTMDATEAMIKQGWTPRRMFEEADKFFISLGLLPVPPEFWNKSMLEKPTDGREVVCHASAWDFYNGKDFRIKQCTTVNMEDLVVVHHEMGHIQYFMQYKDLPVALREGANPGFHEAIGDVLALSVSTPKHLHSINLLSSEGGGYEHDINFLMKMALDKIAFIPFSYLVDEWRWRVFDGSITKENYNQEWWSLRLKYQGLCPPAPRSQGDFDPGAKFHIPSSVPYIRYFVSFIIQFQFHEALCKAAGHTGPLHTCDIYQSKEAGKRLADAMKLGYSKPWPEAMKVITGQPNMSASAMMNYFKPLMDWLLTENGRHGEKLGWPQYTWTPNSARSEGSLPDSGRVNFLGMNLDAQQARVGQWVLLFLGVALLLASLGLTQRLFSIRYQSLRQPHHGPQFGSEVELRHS
# Description: ACE-inhibitory activity was assessed by following the experimental procedure reported by Dou et al., with slight modifications. […] The negative control group was substituted with 100 μL of borate-buffered HEPES. The initial absorbance values of a1 and b1 for both the blank and sample groups were then measured at 340 nm (Thermo Fisher, Waltham, MA, USA). The sample group was then incubated at 37 °C for 30 min, and subsequently, the absorbance values were read again at 340 nm (a2, b2). […] The initial absorbance of the blank: a1-blank; b1-sample. a2: the absorbance values after incubation at 37 °C for 30 min. a2: blank; b2: samples.
# [2] = biological target: T1, Angiotensin I-converting enzyme (ACE); assay: In vitro simulated oral gastrointestinal digestion, ACE-inhibition read-out; type: biochemical, rabbit; settings: initially (before digestion), captopril as reference, Figure 5b
# Description: ACE-inhibitory activity was assessed by following the experimental procedure reported by Dou et al., with slight modifications. A solution of borate-buffered HEPES (50 mM, pH 8.3) was dispensed into a 96-well plate, followed by the addition of samples (100 µL), ACE (50 µL, 0.1 U/mL, prepared from 50 mM borate buffer pH 8.3), and FAPGG(N-[3-(2-Furyl)acryloyl]-Phe-Gly-Gly) (50 µL, 1 mM) into each well. The negative control group was substituted with 100 µL of borate-buffered HEPES. The initial absorbance values of a1 and b1 for both the blank and sample groups were then measured at 340 nm (Thermo Fisher, Waltham, MA, USA). The sample group was then incubated at 37 °C for 30 min, and subsequently, the absorbance values were read again at 340 nm (a2, b2). (1) ACE inhibition rate=A−B/A×100% where A = a1 − a2, and B = b1 − b2. The initial absorbance of the blank: a1—blank; b1—sample. a2: the absorbance values after incubation at 37 °C for 30 min. a2: blank; b2: samples.
# The in vitro digestion process was utilized. A quantity of 1 mg of the sample was dissolved in 1 mL of water and preheated in a water bath at 37 °C. Then, it was mixed with 1 mL of artificial saliva whose pH was adjusted to pH 6.8. The mixture was then agitated at 100 rpm for 1 min at 37 °C. Subsequently, the pH was adjusted to pH 2.0 using 1 M HCl and added in equal amounts to the simulated gastric digest. […]
# ACE = settings: cited from earlier work
# Description: According to the literature, ACE-inhibitory peptides with an IC50 between about 0.32 and 1000 μM have the potential to lower blood pressure. […] We therefore hypothesized that the peptides from FAGDDAPR, QGPIGPR, and GPTGPAGPR may have antihypertensive effects. […] Subsequently, peptides from the ribbonfish hydrolysates were isolated and identified through a combination of filtration and gel filtration chromatography techniques. […] Similarly, Dong et al. used alkaline protease to hydrolyze tilapi ...
# [3] = literature examples of antihypertensive peptides, the reference is not clearly printed, read-out: IC50
substance,measurement,setting,value
FAGDDAPR [FAGDDAPR],IC50,[1],263 µM
same,ACE-inhibitory activity lower than that of captopril,[2],31.17%
QGPIGPR [QGPIGPR],IC50,[1],81.1 µM
FRVW,IC50,"ACE; from Pinctada fucata, read-out: ACE-inhibitory IC50",18.3 µM
WAGP,IC50,ACE; [3],141 µM
LEPWR,IC50,"ACE; from Pacific saury neutral protease hydrolysate, read-out: ACE-inhibitory IC50",99.5 µM
VGLFPSRSF [literature oligopeptide from tilapia (Oreochromis niloticus) skin hydrolysate],IC50,"ACE; from tilapia skin alkaline protease hydrolysate, read-out: ACE-inhibitory IC50",61.4 µM
GPTGPAGPR [GPTGPAGPR],IC50,[1],168 µM
VGINYW,IC50,ACE; [3],15.1 µM
